Test results reported in publication PMC10382584, “Macrocyclization of linear molecules by deep learning to facilitate macrocyclic drug candidates discovery” (Nature Communications, 2023).

How the values were obtained:
Test in all cases: biochemical
Set-up in all cases: DiscoveRx KINOMEscan competition binding, percent of DMSO control signal at 100 nM
Conditions in all cases: read-out: Fig. 4a / Percent Control / Compound 1; percent of DMSO control, competition binding
STK39 = STK39 (Homo sapiens, UniProt Q9UEW8)
YANK1 = molecular target: T1, YANK1 (Homo sapiens, UniProt Q8WU08)
T1 construct: gene STK32A

CDK9 = CDK9 (Homo sapiens, UniProt P50750)
CSNK2A2 = CSNK2A2 (Homo sapiens, UniProt P19784)
YSK1 = molecular target: T2, YSK1 (Homo sapiens, UniProt O00506)
T2 construct: gene STK25

GCN2(Kin.Dom.2,S808G) = molecular target: T3, GCN2(Kin.Dom.2,S808G) (Homo sapiens, UniProt Q9P2K8, S808G)
T3 construct: gene EIF2AK4; Kin.Dom.2

NIK = molecular target: T4, NIK (Homo sapiens, UniProt Q99558)
T4 construct: gene MAP3K14

MERTK = MERTK (Homo sapiens, UniProt Q12866)
MAP3K4 = MAP3K4 (Homo sapiens, UniProt Q9Y6R4)
PRKCQ = PRKCQ (Homo sapiens, UniProt Q04759)
BMPR2 = BMPR2 (Homo sapiens, UniProt Q13873)
TNK2 = TNK2 (Homo sapiens, UniProt Q07912)
Sequence of TNK2 (Q07912 whole entry): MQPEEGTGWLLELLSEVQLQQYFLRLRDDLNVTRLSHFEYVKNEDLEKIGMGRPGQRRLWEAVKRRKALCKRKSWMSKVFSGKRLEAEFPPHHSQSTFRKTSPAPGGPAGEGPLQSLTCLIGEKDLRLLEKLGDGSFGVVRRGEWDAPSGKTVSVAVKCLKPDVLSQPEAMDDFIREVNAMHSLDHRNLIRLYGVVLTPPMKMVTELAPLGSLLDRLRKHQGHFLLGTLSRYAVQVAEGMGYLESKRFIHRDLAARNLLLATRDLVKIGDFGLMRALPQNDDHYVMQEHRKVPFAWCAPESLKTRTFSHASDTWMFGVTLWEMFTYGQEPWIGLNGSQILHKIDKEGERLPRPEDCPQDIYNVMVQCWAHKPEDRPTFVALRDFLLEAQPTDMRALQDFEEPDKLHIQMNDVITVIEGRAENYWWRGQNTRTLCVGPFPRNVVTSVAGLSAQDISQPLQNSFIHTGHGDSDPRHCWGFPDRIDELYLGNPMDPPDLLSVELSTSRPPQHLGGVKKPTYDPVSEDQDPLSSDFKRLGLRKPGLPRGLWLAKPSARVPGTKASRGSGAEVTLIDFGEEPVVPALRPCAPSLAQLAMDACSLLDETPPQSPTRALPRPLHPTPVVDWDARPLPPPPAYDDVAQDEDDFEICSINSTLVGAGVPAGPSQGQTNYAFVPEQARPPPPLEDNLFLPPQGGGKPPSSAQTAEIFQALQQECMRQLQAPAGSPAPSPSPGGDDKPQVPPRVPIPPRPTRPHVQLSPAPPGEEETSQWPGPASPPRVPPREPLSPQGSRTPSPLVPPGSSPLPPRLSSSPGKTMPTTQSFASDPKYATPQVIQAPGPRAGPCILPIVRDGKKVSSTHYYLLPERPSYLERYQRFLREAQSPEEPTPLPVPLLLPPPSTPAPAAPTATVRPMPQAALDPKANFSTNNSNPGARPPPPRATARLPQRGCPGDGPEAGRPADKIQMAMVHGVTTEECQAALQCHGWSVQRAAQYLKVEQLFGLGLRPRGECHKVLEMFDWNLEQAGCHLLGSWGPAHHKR

CAMKK1 = CAMKK1 (Homo sapiens, UniProt Q8N5S9)
Sequence of CAMKK1 (Q8N5S9 whole entry): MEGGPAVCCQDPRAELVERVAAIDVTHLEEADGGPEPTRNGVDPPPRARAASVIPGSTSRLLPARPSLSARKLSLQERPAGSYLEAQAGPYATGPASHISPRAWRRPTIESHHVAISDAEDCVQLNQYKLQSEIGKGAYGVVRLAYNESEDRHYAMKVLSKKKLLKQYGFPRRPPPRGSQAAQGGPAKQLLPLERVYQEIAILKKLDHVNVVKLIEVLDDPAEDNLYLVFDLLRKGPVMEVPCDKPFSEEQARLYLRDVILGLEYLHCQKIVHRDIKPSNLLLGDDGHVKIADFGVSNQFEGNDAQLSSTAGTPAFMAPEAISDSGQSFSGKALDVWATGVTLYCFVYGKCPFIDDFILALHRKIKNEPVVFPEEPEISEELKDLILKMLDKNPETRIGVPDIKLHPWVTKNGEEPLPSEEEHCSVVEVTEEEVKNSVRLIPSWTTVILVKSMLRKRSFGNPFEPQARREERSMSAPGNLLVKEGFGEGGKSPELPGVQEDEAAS

CDKL1 = CDKL1 (Homo sapiens, UniProt Q00532)
Sequence of CDKL1 (Q00532 whole entry): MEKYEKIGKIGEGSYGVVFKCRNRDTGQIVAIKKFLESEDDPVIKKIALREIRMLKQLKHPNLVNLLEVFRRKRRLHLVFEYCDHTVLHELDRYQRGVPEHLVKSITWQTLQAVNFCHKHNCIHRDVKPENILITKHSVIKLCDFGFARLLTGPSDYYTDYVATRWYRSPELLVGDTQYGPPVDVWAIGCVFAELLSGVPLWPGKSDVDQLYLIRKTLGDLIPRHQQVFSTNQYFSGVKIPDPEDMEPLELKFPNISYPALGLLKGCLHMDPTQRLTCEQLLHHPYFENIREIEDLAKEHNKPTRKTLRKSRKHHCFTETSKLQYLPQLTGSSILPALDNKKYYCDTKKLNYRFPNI

JNK2 = molecular target: T5, JNK2 (Homo sapiens, UniProt P45984)
T5 construct: gene MAPK9

AMPK-alpha2 = molecular target: T6, AMPK-alpha2 (Homo sapiens, UniProt P54646)
T6 construct: gene PRKAA2

SNRK = SNRK (Homo sapiens, UniProt Q9NRH2)
Sequence of SNRK (Q9NRH2 whole entry): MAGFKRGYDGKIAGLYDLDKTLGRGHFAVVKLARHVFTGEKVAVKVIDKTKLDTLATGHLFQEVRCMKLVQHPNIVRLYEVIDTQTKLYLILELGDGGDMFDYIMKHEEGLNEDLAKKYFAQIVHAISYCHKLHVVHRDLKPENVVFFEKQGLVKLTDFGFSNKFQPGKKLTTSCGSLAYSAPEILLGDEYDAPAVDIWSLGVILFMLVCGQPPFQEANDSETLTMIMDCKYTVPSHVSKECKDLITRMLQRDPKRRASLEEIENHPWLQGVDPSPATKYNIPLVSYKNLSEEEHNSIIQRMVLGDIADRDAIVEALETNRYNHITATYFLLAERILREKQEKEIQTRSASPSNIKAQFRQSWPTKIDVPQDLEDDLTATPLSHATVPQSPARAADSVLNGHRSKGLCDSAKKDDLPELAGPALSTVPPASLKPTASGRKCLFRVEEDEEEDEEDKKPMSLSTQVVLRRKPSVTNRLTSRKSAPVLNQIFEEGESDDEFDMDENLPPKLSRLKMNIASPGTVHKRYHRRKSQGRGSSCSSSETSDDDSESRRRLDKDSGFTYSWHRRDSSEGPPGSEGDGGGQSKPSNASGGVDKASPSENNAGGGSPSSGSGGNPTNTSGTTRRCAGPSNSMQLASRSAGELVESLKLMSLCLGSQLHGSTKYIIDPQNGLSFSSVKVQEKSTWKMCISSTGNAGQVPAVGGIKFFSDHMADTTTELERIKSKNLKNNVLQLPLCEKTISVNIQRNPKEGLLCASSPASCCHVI

CDK3 = CDK3 (Homo sapiens, UniProt Q00526)
ADCK4 = molecular target: T7, ADCK4 (Homo sapiens, UniProt Q96D53)
T7 construct: gene COQ8B

PIM2 = PIM2 (Homo sapiens, UniProt Q9P1W9)
Sequence of PIM2 (Q9P1W9 whole entry): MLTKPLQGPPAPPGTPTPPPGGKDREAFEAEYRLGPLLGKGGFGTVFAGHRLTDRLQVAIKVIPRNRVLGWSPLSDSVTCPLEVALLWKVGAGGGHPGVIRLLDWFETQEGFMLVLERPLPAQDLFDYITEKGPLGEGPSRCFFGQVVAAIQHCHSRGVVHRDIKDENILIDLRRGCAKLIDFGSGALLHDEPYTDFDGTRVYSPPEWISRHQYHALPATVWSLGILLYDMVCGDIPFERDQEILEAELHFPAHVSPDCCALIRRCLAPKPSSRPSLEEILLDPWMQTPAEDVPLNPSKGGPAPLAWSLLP

EPHA2 = EPHA2 (Homo sapiens, UniProt P29317)
Sequence of EPHA2 (P29317 whole entry): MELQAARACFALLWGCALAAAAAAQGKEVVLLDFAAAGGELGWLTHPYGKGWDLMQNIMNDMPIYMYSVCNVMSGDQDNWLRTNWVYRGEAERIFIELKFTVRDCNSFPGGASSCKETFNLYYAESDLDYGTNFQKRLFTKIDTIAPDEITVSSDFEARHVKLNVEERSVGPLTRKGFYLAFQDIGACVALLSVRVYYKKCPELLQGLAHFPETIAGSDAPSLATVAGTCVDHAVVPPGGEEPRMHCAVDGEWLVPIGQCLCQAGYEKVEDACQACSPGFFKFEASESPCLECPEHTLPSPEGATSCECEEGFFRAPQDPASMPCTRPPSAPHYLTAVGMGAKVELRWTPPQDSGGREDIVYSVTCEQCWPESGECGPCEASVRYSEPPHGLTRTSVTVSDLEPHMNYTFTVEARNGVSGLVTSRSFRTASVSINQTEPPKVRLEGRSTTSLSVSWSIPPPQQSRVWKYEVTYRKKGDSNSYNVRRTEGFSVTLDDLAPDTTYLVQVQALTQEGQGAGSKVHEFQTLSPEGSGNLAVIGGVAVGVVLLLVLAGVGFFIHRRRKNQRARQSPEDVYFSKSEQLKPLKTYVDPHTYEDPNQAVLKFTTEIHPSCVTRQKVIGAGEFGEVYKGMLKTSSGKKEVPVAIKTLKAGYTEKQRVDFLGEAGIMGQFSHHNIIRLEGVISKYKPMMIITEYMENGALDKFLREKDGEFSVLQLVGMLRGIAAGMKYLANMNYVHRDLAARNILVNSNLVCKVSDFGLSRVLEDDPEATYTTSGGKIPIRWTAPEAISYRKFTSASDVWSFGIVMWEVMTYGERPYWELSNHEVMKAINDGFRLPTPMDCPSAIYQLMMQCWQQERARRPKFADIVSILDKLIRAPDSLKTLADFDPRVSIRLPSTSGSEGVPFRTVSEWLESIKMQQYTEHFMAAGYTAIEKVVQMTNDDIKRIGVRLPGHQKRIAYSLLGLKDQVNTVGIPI

MAPKAPK2 = MAPKAPK2 (Homo sapiens, UniProt P49137)
Sequence of MAPKAPK2 (P49137 whole entry): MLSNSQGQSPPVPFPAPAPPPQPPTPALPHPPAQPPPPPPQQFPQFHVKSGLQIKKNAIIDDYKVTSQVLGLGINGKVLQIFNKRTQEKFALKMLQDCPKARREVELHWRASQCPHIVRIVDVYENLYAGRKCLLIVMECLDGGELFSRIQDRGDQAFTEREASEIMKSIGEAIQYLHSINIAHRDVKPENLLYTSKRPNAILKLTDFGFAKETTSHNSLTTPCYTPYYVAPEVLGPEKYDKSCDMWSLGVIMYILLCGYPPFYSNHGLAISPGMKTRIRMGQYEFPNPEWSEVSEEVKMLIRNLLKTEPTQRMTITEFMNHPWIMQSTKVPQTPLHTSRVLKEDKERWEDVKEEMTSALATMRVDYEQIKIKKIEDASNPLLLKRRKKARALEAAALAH

NEK10 = NEK10 (Homo sapiens, UniProt Q6ZWH5)
PHKG1 = PHKG1 (Homo sapiens, UniProt Q16816)
Sequence of PHKG1 (Q16816 whole entry): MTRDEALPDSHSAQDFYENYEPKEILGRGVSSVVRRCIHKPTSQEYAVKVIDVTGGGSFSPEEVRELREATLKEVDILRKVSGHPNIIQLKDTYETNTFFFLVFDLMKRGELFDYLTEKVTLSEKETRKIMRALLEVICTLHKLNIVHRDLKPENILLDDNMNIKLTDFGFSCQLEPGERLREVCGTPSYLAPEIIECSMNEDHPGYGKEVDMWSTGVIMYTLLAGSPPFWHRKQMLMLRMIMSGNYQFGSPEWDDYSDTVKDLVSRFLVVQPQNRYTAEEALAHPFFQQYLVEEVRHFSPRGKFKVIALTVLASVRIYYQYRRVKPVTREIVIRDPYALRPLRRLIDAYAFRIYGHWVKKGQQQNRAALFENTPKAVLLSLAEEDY

LKB1 = molecular target: T8, LKB1 (Homo sapiens, UniProt Q15831)
T8 construct: gene STK11
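Also: KINOMEscan kinase panel binding assay, signal normalized between DMSO as 100% and a positive control compound as 0%.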

`Cc1cnc2nc1Nc1cccc(c1)COCc1cc(ccc1OCCN1CCCC1)N2` [Compound 1] showed a remaining binding at 0.1 µM (STK39) of 62%, a remaining binding at 0.1 µM (YANK1) of 73% and a remaining binding at 0.1 µM (CDK9) of 99%. For the same compound, the remaining binding at 0.1 µM (CSNK2A2) was 62%, the remaining binding at 0.1 µM (YSK1) was 91% and the remaining binding at 0.1 µM (GCN2(Kin.Dom.2,S808G)) was 38%. For the same compound, the remaining binding at 0.1 µM (NIK) was 74%, the remaining binding at 0.1 µM (MERTK) was 81% and the remaining binding at 0.1 µM (MAP3K4) was 100%. The remaining binding at 0.1 µM (PRKCQ) was 100%, the remaining binding at 0.1 µM (BMPR2) was 87% and the remaining binding at 0.1 µM (TNK2) was 86%. It also gave a remaining binding at 0.1 µM (CAMKK1) of 100%, a remaining binding at 0.1 µM (CDKL1) of 86% and a remaining binding at 0.1 µM (JNK2) of 50%. It also gave a remaining binding at 0.1 µM (AMPK-alpha2) of 97%, a remaining binding at 0.1 µM (SNRK) of 78% and a remaining binding at 0.1 µM (CDK3) of 91%. It also gave a remaining binding at 0.1 µM (ADCK4) of 61%, a remaining binding at 0.1 µM (PIM2) of 100% and a remaining binding at 0.1 µM (EPHA2) of 82%. For the same compound, the remaining binding at 0.1 µM (MAPKAPK2) was 100%, the remaining binding at 0.1 µM (NEK10) was 95% and the remaining binding at 0.1 µM (PHKG1) was 87%. For the same compound, the remaining binding at 0.1 µM (LKB1) was 100%.
